{
  "source": "patent US20260027073A1",
  "about": "“USE OF SMALL-MOLECULE COMPOUND HAVING NAPHTHYLAMINE STRUCTURE” (HANGZHOU PHECDAMED CO., LTD., priority 2023, published 2026)",
  "system": "mouse bone marrow mesenchymal stem cells",
  "experiment": "Senescence of mouse bone marrow mesenchymal stem cells by passaging",
  "format": "cell-based",
  "settings": "10 μM",
  "protocol": "Extraction of bone marrow mesenchymal stem cells: C57 mice weighing about 25 g were selected, and after anesthesia with 30 mg/kg chloral hydrate, the femur and tibia were removed and put into a Petri dish, one end of the femur and tibia were cut off to fully expose the bone marrow cavity, and a 1 ml syringe was used to extract the DMEM/F12 medium, and the tip of the needle was pricked into the bone marrow cavity to rinse the bone marrow, and a 15 ml centrifuge tube was connected underneath to make the rinsed liquid flow into the centrifuge tube, and the rinsing was repeated several times until the bone marrow cavity was rinsed clean. The rinsed suspension was blown repeatedly with a pipette to make the cells in the rinsed liquid as single-cell as possible, and the supernatant was transferred to another tube after standing still for a few minutes, and the cell suspension was continued to blow to make the cells well dispersed. The obtained cell suspension was centrifuged at 1000 rpm for 5 min, and after removing the residual supernatant, 1 ml of DMEM/F12 medium was added, and after repeated blowing, the CD45-Sca-1+PDGFRα+high-purity primary mouse bMSC cell line was sorted out by flow cytometric sorting, and the sorted cells were dispensed into culture flasks. The cells were observed under the microscope and placed in the incubator at 37° C., 5% CO2 to incubate, and the solution was replaced for 72 h, the drug administration treatment was performed at the first passaging, and then 10 μM TJ01-013 was given to each passaging thereafter, labeled as Con-Y at the 2nd generation, and labeled as Con-O at the 9th generation, and the drug administration treatment groups were given until the 9th generation, and all the cells were placed under the microscope for observing the morphology of the cells, and the proportion of the SA-β-gal+ cells was counted. The levels of the DNA damage marker γ-H2AX and the heterochromatin modification H3K9me3 after TJ01-013 treatment were detected by immunofluorescence technique (procedure described previously).",
  "data": [
    {"smiles": "O=C(O)C[S+]([O-])c1cc(NS(=O)(=O)c2ccc(Br)cc2)c2ccccc2c1O", "note": "(stereo not drawn) [I-1]", "values": [
      {"measurement": "percentage of SA-β-gal+ cells", "setting": "9th generation, vs Con-O, FIG. 48", "value": "significantly decreased"},
      {"measurement": "expression level of heterochromatin-modified H3K9me3", "setting": "Con-O cells, FIG. 50", "value": "restored its expression level to some extent"},
      {"measurement": "level of DNA damage marker γ-H2AX", "setting": "aged cells, FIG. 49", "value": "significantly reduced"}
    ]}
  ]
}
